Patent US12409172B2, “Dosage regimen” (UNION therapeutics A/S, priority 2023, dated 2025)

Key:
[1] = system: patients with moderate to severe psoriasis vulgaris; experiment: Phase 2a study LP0058-1072 (NCT02888236): orismilast 30 mg BID immediate release vs placebo, 16 weeks; format: in vivo
Experimental: In a phase 2a prospective, randomized, double-blind, placebo-controlled clinical trial (NCT02888236), patients with moderate-to-severe psoriasis were randomized to receive 30 mg twice per day orally in the form of an immediate release (IR) formulation or placebo over 16 weeks.
The modified-release formulation was studied in a clinical trial (LP0058-1442) and administered in a total of 36 healthy volunteers: 18 in part 1, 9 in part 2, and 9 in part 3. Twenty-seven (27) healthy volunteers received a single administration of 30 mg orismilast, and 9 subjects received multiple administrations over a period of 17 days with an up-titration up to a maximum of 60 mg BID. Part 1 of this study was to evaluate the key PK parameters of the new modified-release formulation compared to the reference capsule formulation with immediate release. Orismilast was rapidly absorbed from both formulations with median tmax values of 3.00 hours post-dose for the immediate-release capsule and 2.52 hours post-dose for the modified-release tablet. The individual tmax ranges were approximately 1 to 6 hours post-dose for the immediate-release capsule and 1 to 4 hours post-dose for the modified-release tablet. […]

CYP2D6 = CYP2D6 (Homo sapiens, UniProt P10635); experiment: CYP2D6 inhibition in vitro; format: in vitro ADME
Description: Concomitant use of orismilast • with other drugs mainly metabolized by the cytochrome CYP2D6 has not been studied clinically.

[2] = system: TNF-α secretion from human whole blood; experiment: LPS and SEB-induced TNF-α secretion from human whole blood; format: cell-based; conditions: average; both LPS and SEB-induced TNF-α secretion from human whole blood

CYP2D6, sequence (P10635 whole entry): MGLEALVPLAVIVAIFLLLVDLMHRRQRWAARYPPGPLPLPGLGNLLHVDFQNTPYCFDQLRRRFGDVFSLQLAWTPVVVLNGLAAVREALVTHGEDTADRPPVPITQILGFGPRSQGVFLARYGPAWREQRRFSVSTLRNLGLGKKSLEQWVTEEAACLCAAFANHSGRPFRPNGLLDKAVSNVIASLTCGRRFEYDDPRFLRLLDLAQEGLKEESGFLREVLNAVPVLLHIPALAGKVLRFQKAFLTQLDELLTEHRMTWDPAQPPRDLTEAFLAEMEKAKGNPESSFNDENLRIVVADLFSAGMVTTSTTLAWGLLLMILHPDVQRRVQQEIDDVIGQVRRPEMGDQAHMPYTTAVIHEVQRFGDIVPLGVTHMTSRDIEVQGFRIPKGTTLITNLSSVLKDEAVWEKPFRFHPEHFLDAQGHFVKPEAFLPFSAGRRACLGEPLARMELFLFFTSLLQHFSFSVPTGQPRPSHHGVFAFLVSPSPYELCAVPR

O=C(Cc1c(Cl)c[n+]([O-])cc1Cl)c1ccc(OC(F)F)c2c1OC1(CCS(=O)(=O)CC1)O2 [orismilast, 2-(3,5-dichloro-1-oxidopyridin-1-ium-4-yl)-1-[7-(difluoromethoxy)-1′,1′-dioxospiro[1,3-benzodioxole-2,4′-thiane]-4-yl]ethanone]
efficacy in psoriasis on each predefined endpoint [1]: confirmed
patients withdrawn from the trial because of tolerability issues [1]: half
inhibition of CYP2D6 (CYP2D6): competitive direct inhibitor
potency relative to apremilast on a molar basis [2]: 23 times
